# Assay results taken from publication PMC3577903, “Staphylococcus aureus FepA and FepB Proteins Drive Heme Iron Utilization in Escherichia coli” (PLoS ONE, 2013).
# Target: T1, FepB (FepB-6His, apo-FepB) (Staphylococcus aureus, UniProt Q2G130)
# T1 construct: gene SAOUHSC_00326; Tat signal peptide removed; six-histidine tag kept (pET22b NdeI/XhoI); expressed in E. coli; apo form monomeric after gel filtration (heme-loaded form dimeric)
# Assay: UV-visible absorbance titration (Soret band […] nm), one-site fit
# Type: binding
# Conditions: apo-FepB 2.2 µM, 50 mM Tris-HCl pH 8.0, 0.2 M NaCl, room temperature; stoichiometry 0.9; PPIX in DMSO; stoichiometry 0.7
# T1 sequence (Q2G130 entry or part of it): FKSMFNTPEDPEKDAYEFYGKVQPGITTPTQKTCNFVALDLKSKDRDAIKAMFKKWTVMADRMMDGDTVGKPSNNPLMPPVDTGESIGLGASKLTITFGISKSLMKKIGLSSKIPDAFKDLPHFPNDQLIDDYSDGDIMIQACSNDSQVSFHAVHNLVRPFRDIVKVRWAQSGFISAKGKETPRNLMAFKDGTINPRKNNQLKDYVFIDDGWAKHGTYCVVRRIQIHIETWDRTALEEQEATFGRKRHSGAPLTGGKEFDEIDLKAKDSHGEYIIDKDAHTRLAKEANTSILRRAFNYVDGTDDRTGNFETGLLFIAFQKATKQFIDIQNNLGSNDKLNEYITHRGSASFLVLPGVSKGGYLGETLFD
smiles,measurement,value
C=CC1=C(C)c2cc3[nH]c(cc4nc(cc5[nH]c(cc1n2)c(C)c5CCC(=O)O)C(CCC(=O)O)=C4C)c(C)c3C=C [PPIX],Kd,"21.1±5,2 nM"
